# EP0457908A1, “HYDROCHLORIDE 2,3,3a,4,5,6-HEXAHYDRO-8-CYCLOHEXYL-1H-PYRAZINO (3,2,1-j,k)CARBAZOL, METHOD OF OBTAINING IT AND A PHARMACEUTICAL PREPARATION OF ANTIDEPRESSIVE ACTION BASED ON IT” (priority 1989, dated 1991)
# Assays:
# male white mice = test: Hyperlocomotion induced by d,l-amphetamine; format: in vivo; conditions: 10-20 minutes after d,l-amphetamine 2.5 mg/kg intraperitoneally, distilled water 1,924.5±177.6
# Protocol: The influence on hyperlocomotion induced by d,l-amphetamine was studied in experiments on male white mice with a mass of 20-22 g.
# The locomotive activity of the mice was recorded 10-20 minutes after administration of d,l-amphetamine for 10 minutes.
# white mice = test: Reserpine-induced blepharoptosis; format: in vivo; conditions: acute and chronical experiments
# Protocol: The compound according to the present invention was tested for the ability to decrease depriming effects of reserpin (blepharoptosis, hypothermia and the like).
# Tests were carried out on white mice of both sexes with a mass of 16-18 g.
# The compound according to the present invention was orally administered in a single dose and repeatedly during 18 days.
# The compound according to the present invention was administered in the single doses of 1, 2.5 and 5 mg/kg; repeatedly - in the doses of 0.5, 1.0, 2.5 and 5 mg/kg. The single-time administration and the last administration of the 18 days' course were effected 60 minutes prior to the intraperitoneal administration of reserpine (2.5 mg/kg). For a comparative assessment in these and other experiments pyrazidol and imipramine were also administered.
# monoaminoxidase [1] = target: T1, monoaminoxidase (Rattus norvegicus, UniProt P21396); test: Monoaminoxidase activity in brain and liver homogenates after oral dosing; format: in vivo, male white rats
# T1 sequence (P21396 1-526): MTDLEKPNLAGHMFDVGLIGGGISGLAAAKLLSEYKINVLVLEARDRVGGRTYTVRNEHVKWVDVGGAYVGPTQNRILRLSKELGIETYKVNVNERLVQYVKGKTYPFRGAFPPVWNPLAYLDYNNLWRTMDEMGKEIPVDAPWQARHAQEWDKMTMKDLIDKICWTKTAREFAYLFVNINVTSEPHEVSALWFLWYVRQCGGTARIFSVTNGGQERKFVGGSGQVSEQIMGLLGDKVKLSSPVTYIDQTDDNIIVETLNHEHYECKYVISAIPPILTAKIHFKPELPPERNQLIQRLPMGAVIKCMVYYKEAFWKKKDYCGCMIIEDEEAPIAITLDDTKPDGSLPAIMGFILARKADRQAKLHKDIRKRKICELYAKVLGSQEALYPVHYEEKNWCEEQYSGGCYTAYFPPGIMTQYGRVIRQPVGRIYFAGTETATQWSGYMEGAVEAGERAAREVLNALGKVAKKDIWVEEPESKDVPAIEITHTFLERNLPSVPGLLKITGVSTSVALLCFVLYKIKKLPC
# Protocol: (§1) The effect of the compound according to the present invention on the activity of monoaminoxidase was studied in special biochemical investigations.
# (§2) The experiments were conducted in vivo on male white rats with a mass of 180-200 g. The compound in the doses of 5, 10, 25 and 50 mg/kg was administered orally. An equal volume of a […] of NaCl was administered to control animals. 1.5 hour after administration of the drug the animals were killed. […] The activity of monoaminoxidase was determined in 50% homogenates of the liver and brains of rate prepared on the basis of a 0.1 M phosphate buffer (pH = 7.4) containing 2% of a detergent - Trytol X-100. The substrates were used in concentrations of serotonin 10 µmol, tyramine 6 µmol per sample. The activity of monoaminoxidase was evaluated by liberation of ammonia during incubation of the samples for 50 minutes at the temperature of 37 °C in an oxygen atmosphere.
# (§3) Protein in homogenates of the rat liver and brain was determined following the Peterson procedure (1977).
# monoaminoxidase [2] = test: as above; format: in vivo, male white rats
# Protocol: as §1, §2, §3
# male rats = test: Conditional reflex of passive avoidance after amnesia (antiamnestic effect); format: in vivo; conditions: 1 mg/kg oral
# Protocol: Also studied was the effect of the compound according to the present invention on reproduction of the memory traces upon amnesia.
# The experiments were carried out using male rats of a mass of 180-220 g.
# The antiamnestic effect of the compound according to the present invention was assessed by the method of a conditional reflex of a passive avoidance with a subsequent use, as amnesic factors, of an electric shock (50 mA, 0.3 ms) through ear electrodes or scopolamine (1 mg/kg hypodermally).
# The learning of the conditional reflex of a passive avoidance was effected by the "Step-down" method (Izquerdo, 1981) in an experimental unit consisting of a 30x30x40 cm chamber with an electrified floor having in its centre a plastic platform of 10x15x0.5 cm size. A rat was placed onto the platform and a latent period of its escape therefrom was recorded (in seconds). When escaping the platform onto the floor, the rat was subjected to an electric irritation on paws (0.5 mA, 10 seconds) that made it to climb the platform. The learning course took 6 sessions, each of 3 minutes duration. The conditional response was regarded as acquired if an animal remained on the platform for 1 minute.
# The amnesic effect was produced immediately after learning course and 30 minutes thereafter the compound according to the present invention was administered in the doses of 1 and 3 mg/kg or (for comparison) pyracetam was administered in the doses of 100, 300, 600 and 1,000 mg/kg. The reproduction of the memory trace was assessed 24 hours after the electric shock and 2.5 hours after administration of scopolamine.
# [3] = 5 mg/kg oral, 1.5 hour after administration
# [4] = 10 mg/kg oral, 1.5 hour after administration
# [5] = 25 mg/kg oral, 1.5 hour after administration (Table 5)
# [6] = 25 mg/kg orally, time 1.5 hours (Table 6)
# [7] = 25 mg/kg orally, time 6.0 hours
# [8] = 25 mg/kg orally, time 48.0 hours
# [9] = 50 mg/kg oral, 1.5 hour after administration
substance,measurement,setting,value
"2,3,3a,4,5,6-hexahydro-8-cyclohexyl-1H-pyrazino-(3,2,1-j,k)-carbazole hydrochloride [Compound of the present invention]",Average value of locomotor activity of a group of 5 mice for 10 minutes,male white mice; 1.0 mg/kg oral,"3,482.6±445.5"
same,Average value of locomotor activity of a group of 5 mice for 10 minutes,male white mice; 2.5 mg/kg oral,"3,315.5±462.6"
same,Average value of locomotor activity of a group of 5 mice for 10 minutes,male white mice; 5.0 mg/kg oral,"4,885.0±537.2"
same,"anti-reserpine effect, superior to pyrazidol",white mice,more than 10 times
same,"Inhibition of deamination, % (M±m), Liver, Serotonin",monoaminoxidase [1]; [3],36±9.0%
same,"Inhibition of deamination, % (M±m), Brain, Serotonin","monoaminoxidase [1]; 5 mg/kg oral, 1.5 hour after administration, listed as Compound of the invention, hydrochloride",60±6.3%
same,"Inhibition of deamination, % (M±m), Brain, Serotonin","monoaminoxidase [1]; 5 mg/kg oral, 1.5 hour after administration, listed as compound according to the present invention, hydrochloride",60%
same,"Inhibition of deamination, % (M±m), Brain, Serotonin",monoaminoxidase [1]; [4],61±7.6%
same,"Inhibition of deamination, % (M±m), Liver, Serotonin",monoaminoxidase [1]; [4],27±6.7%
same,"Inhibition of deamination, % (M±m), Brain, Serotonin",monoaminoxidase [1]; [5],71±7.6%
same,"Inhibition of deamination, % (M±m), Liver, Serotonin",monoaminoxidase [1]; [5],64±6.4%
same,"Inhibition of deamination, % (M±m), Brain, Serotonin",monoaminoxidase [1]; [6],71.0±2.0%
same,"Inhibition of deamination, % (M±m), Liver, Serotonin",monoaminoxidase [1]; [6],64.0±6.4%
same,"Inhibition of deamination, % (M±m), Brain, Serotonin",monoaminoxidase [1]; [7],66.5±3.0%
same,"Inhibition of deamination, % (M±m), Liver, Serotonin",monoaminoxidase [1]; [7],53.0±3.0%
same,"Inhibition of deamination, % (M±m), Brain, Serotonin",monoaminoxidase [1]; [8],14.0±4.8%
same,"Inhibition of deamination, % (M±m), Liver, Serotonin",monoaminoxidase [1]; [8],0%
same,"Inhibition of deamination, % (M±m), Brain, Serotonin",monoaminoxidase [1]; [9],93±3.0%
same,"Inhibition of deamination, % (M±m), Liver, Serotonin",monoaminoxidase [1]; [9],89±2.7%
same,"Inhibition of deamination, % (M±m), Brain, Tyramine",monoaminoxidase [2]; [3],17±4.2%
same,"Inhibition of deamination, % (M±m), Liver, Tyramine",monoaminoxidase [2]; [3],0%
same,"Inhibition of deamination, % (M±m), Brain, Tyramine",monoaminoxidase [2]; [4],16.6±3.4%
same,"Inhibition of deamination, % (M±m), Liver, Tyramine",monoaminoxidase [2]; [4],0%
same,"Inhibition of deamination, % (M±m), Brain, Tyramine",monoaminoxidase [2]; [5],40±3.0%
same,"Inhibition of deamination, % (M±m), Liver, Tyramine",monoaminoxidase [2]; [5],0%
same,time after which the activity of monoaminoxidase was fully restored,monoaminoxidase [2]; 25 mg/kg orally,48 h
same,"Inhibition of deamination, % (M±m), Brain, Tyramine",monoaminoxidase [2]; [6],40.0±3.0%
same,"Inhibition of deamination, % (M±m), Liver, Tyramine",monoaminoxidase [2]; [6],0%
same,"Inhibition of deamination, % (M±m), Brain, Tyramine",monoaminoxidase [2]; [7],36.0±9.3%
same,"Inhibition of deamination, % (M±m), Liver, Tyramine",monoaminoxidase [2]; [7],0%
same,"Inhibition of deamination, % (M±m), Brain, Tyramine",monoaminoxidase [2]; [8],2.5±1.1%
same,"Inhibition of deamination, % (M±m), Liver, Tyramine",monoaminoxidase [2]; [8],0%
same,"Inhibition of deamination, % (M±m), Brain, Tyramine",monoaminoxidase [2]; [9],43±6.6%
same,"Inhibition of deamination, % (M±m), Liver, Tyramine",monoaminoxidase [2]; [9],0%
same,character of the inhibiting effect on the activity of monoaminoxidase,"monoaminoxidase [2]; rat, in vivo",reversible selective inhibitor of monoaminoxidase of the A type
same,"Number of rats, %, remained on the platform for 1 minute, 2.5 hours after administration of scopolamine (1 mg/kg hypodermally)","male rats; amnesia control 10±3.3, distilled water 85±2.0",22±6.0%
same,"Number of rats, %, remained on the platform for 1 minute, 1 day after electric shock","male rats; electroshock alone 14.2±3.0, distilled water 85±2.0",25±3.2%
